Test system: lymphoma cells (mantle cell lines and DLBCL cell lines)
Test: In vitro anti-cancer cell viability assay in lymphoma cell lines
Assay type: cell-based
Protocol: Effect of Composition SC-05-L-1 and Composition SC-05-K-1 against lymphoma cells was assessed by using cell viability assays in representative mantle cell lines and diffuse large B-cell lymphoma (DLBCL) cell lines. The cells were treated with increasing concentration of Compound SC-05-L-1 and Compound SC-05-K-1. Representative DLBCL cell lines sensitive or less sensitive to Compound SC-05-L-1 and Compound SC-05-K-1 were compared.

CCN(CC)CCOc1ccc(/C(=C(/CCCOCC(O)CN2CCCNCCNCCCNCC2)c2ccccc2)c2ccccc2)cc1.Cl [SC-05-L-1, (Z)-1-(1,4,8,11-tetraazacyclotetradecan-1-yl)-3-((5-(4-(2-(diethylamino)ethoxy)phenyl)-4,5-diphenylpent-4-en-1-yl)oxy)propan-2-ol hydrochloride salt]
anti-cancer effect against lymphoma cells (increasing concentration (FIG. 7A, 7B)): dose-dependent manner against lymphoma cells
relative toxicity (lymphoma cells, cyclam versus cyclen chelator (FIG. 8A, 8B)): less toxic than Compound SC-05-K-1

From patent publication US11090395B2, “Composition for cross talk between estrogen receptors and cannabinoid receptors” (SeeCure Taiwan Co., Ltd., priority 2018, dated 2021)
